From PubChem BioAssay (NCI)
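Each compound was tested at five concentrations against cells in 96-well plates for 48 hours. TGI: total growth inhibition.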

Test system: P388 leukemia
Assay: NCI tumour cell line growth inhibition, 48 h

SMILES | TGI [µM]
OCC1OC(n2cnc3c2NC=NC[C@H]3O)CC1O (stereo partly drawn) | 500
CC(C)NC(=O)OCc1c(COC(=O)NC(C)C)c(-c2ccc(Cl)c(Cl)c2)n2c1CCC2 | > 100
COC1=C2C[C@@H](C)C[C@@H](OC)[C@@H](O)[C@H](C)/C=C(\C)[C@@H](OC(N)=O)[C@H](OC)/C=C\C=C(/C)C(=O)NC(=CC1=O)C2=O | 0.48
